US20230391868A1, “COMPOSITIONS FOR AND METHODS OF TREATING CANCER” (The George Washington University, priority 2022, published 2023)

Columns and labels:
[1] = test system: A31A7 macrophages and BMDMs; assay: Macrophage cell surface marker expression by flow cytometry; format: cell-based, mouse
Experimental: Bone marrow-derived macrophages were isolated from the femurs and tibias of wild-type C57/Bl6, HDAC6 knockout (C57BL/6J-Hdac6em2Lutzy/J, 029318, Jackson Laboratory), or UBC-GFP (C57BL/6-Tg(UBC-GFP)30Scha/J, 004353, Jackson Laboratory). Isolated bone marrow cells were cultured in RPMI 1640 complete medium with 10% FBS, 1% NEAA, and 1% penicillin-streptomycin in 5% CO2 at 37° C. Medium was supplemented with murine recombinant M-CSF (20 ng/mL, 576404, Biolegend) to differentiate monocytes into macrophages. Three days after bone marrow isolation, undifferentiated and floating cells were washed with PBS and replaced with fresh RPMI media. A3.1A7 cells and BMDMs were pretreated with 5 μM of HDAC6 inhibitor NextA or vehicle prior to adding polarizing cytokines.
Macrophages were polarized to M1-like phenotype using 50 ng/mL of interferon gamma (IFNγ, 575306, Biolegend) and 100 ng/mL of bacterial lipopolysaccharide (LPS, L2880, Sigma Aldrich, St. Louis, MO) for 24 hours. To polarize macrophages towards the M2-like phenotype, macrophages were stimulated with 20 ng/mL of IL-4 (214-14, PeproTech) and 20 ng/mL of IL-13 (575904, Biolegend). THP1 monocytes were treated with 5 ng/mL of phorbol 12-myristate 13-acetate (PMA) to induce differentiation into macrophages. Once converted to macrophages, media was replaced to remove PMA prior to treatment and/or polarization. […]

[2] = test system: A31A7 macrophages; assay: Western Blotting of A31A7 macrophages polarized to M2; format: cell-based, mouse; settings: Western Blot, M2 A31A7 (FIG. 7F)
Experimental: Cells were treated with the respective compounds for 24 h. Then, cells were lysed using RIPA buffer (ThermoFisher Scientific Pierce, 89901, Waltham, MA) supplemented with 1× protease and phosphatase inhibitor (ThermoFisher Scientific, A32961). Lysates were sonicated at 4° C. for 8 minutes (8 cycles of 30 sec on, 30 sec off). Protein concentration was quantified using a BCA protein assay (ThermoFisher Scientific, 23225) following manufacturer's instructions. Samples were mixed with 6× Laemmli SDS sample reducing buffer (Alfa Aesar, J61337AC, Tewksbury, MA), and boiled at 80° C. for 10 min. Next, samples were loaded on to 4%-20% gels (Bio-Rad, 4561096, Hercules, CA), transferred to PVDF membranes and blocked with Odyssey Blocking Buffer (LI-COR Biosciences, 927-40000, Lincoln, NE). The following primary antibodies used for immunoblotting were purchased from Cell Signaling Technologies (Danvers, MA): tubulin (3873), acetylated tubulin (3971), arginase-1 (93668), and SIRPα (13379). Primary antibody recognizing HDAC6 was purchased from Assay Biotechnology (C0226, Fremont, CA), and iNOS antibody was purchased from ThermoFisher Scientific (PA3-030A). Bands were detected using Azure Biosystems Imaging System c600 (Azure Biosystems, Dublin, CA).

[3] = test system: SIRPα; assay: SIRPα expression on NK cells; format: cell-based

CCCCN(Cc1ccc(C(=O)NO)cc1)C(=O)Nc1ccccc1 [NextA, Nexturastat A]
cell surface expression of CD80 and H2 ([1]; A31A7 and BMDMs polarized to M1-like phenotypes, 5 μM (FIG. 1B)): upregulation | CD206 surface expression ([1]; A31A7 cells and BMDMs, M2, 5 μM (FIG. 1D)): significantly downregulated | ARG1 expression [2]: decrease | HDAC6 inhibitor potency compared with Tubacin and Tubastatin A [2]: most potent HDAC6 inhibitor | acetylated tubulin, a marker for HDAC6 inhibition [2]: robust increase | SIRPα expression on NK cells [3]: downregulated
